Results taken from publication PMC9481570, “A small molecule antagonist of SMN disrupts the interaction between SMN and RNAP II” (Nature Communications, 2022).
Where “and” joins values, the source holds several entries; their conditions need not be identical. Equal entries are not always repeated.

Experiments:
Assay in all cases: Affinity-purification and mass spectrometry (AP-MS) chemical proteomics, all proteins;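 as to Difference: 200 µM free competitor with 20 µM biotin probe overnight in lysate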
Type in all cases: binding
[1] = biological target: T1, proteins displaced from immobilized biotin-Cmpd 1 pulldowns (U2OS cell lysate) (Homo sapiens, UniProt O95478); details: GN=NSA2 (O95478)
T1 construct: endogenous in cells; host or cells: U2OS

[2] = biological target: T2, proteins displaced from immobilized biotin-Cmpd 1 pulldowns (U2OS cell lysate) (Homo sapiens, UniProt P61313); details: GN=RPL15 (P61313)
T2 construct: endogenous in cells; host or cells: U2OS

[3] = biological target: T3, proteins displaced from immobilized biotin-Cmpd 1 pulldowns (U2OS cell lysate) (Homo sapiens, UniProt P62424); details: GN=RPL7A (P62424)
T3 construct: endogenous in cells; host or cells: U2OS

[4] = biological target: T4, proteins displaced from immobilized biotin-Cmpd 1 pulldowns (U2OS cell lysate) (Homo sapiens, UniProt Q86UE4); details: GN=MTDH (Q86UE4)
T4 construct: endogenous in cells; host or cells: U2OS
T4 sequence (Q86UE4 whole entry): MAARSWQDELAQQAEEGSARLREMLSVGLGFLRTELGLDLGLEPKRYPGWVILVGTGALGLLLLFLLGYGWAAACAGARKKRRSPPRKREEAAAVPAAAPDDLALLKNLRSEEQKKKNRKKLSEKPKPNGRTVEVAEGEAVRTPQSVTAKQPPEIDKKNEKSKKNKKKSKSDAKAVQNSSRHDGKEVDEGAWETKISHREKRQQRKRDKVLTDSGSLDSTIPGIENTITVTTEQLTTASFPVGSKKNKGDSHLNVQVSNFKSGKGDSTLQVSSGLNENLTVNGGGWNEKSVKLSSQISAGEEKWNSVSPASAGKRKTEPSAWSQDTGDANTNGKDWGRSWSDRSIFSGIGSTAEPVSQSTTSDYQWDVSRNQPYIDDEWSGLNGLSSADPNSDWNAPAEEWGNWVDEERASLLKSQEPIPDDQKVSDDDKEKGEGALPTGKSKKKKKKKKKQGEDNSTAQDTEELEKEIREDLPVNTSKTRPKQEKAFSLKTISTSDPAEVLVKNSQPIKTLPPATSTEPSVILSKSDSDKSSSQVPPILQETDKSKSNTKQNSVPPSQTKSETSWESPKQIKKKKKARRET

[5] = biological target: T5, proteins displaced from immobilized biotin-Cmpd 1 pulldowns (U2OS cell lysate) (Homo sapiens, UniProt Q9NUQ6); details: GN=SPATS2L (Q9NUQ6)
T5 construct: endogenous in cells; host or cells: U2OS
T5 sequence (Q9NUQ6 whole entry): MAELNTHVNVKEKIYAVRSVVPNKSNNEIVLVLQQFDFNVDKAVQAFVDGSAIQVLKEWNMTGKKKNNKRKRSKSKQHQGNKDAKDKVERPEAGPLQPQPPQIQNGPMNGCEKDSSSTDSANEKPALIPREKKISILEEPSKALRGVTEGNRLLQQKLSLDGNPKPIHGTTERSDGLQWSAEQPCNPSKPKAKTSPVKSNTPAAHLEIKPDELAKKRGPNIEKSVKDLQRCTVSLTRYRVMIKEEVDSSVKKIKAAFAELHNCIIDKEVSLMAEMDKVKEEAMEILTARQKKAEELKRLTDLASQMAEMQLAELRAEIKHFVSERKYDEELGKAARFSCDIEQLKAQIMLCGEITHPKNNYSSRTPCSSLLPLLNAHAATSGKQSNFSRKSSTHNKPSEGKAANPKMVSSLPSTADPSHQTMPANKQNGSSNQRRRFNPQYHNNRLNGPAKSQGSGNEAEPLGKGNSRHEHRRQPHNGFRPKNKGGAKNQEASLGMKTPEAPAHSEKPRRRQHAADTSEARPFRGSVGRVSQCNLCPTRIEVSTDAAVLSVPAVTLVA

[6] = biological target: T6, proteins displaced from immobilized biotin-Cmpd 1 pulldowns (U2OS cell lysate) (Homo sapiens, UniProt Q9Y3C1); details: GN=NOP16 (Q9Y3C1)
T6 construct: endogenous in cells; host or cells: U2OS
T6 sequence (Q9Y3C1 whole entry): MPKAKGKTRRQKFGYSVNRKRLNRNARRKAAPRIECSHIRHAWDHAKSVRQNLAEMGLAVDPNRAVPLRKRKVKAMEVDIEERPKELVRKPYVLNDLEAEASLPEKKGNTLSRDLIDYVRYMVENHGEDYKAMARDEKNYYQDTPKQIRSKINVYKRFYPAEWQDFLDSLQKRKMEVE

`Cn1c2c(c(=N)c3c1CCC3)CCC2` [Compound 1, 4-methyl-2,3,4,5,6,7-hexahydrodicyclopenta[b,e]pyridin-8(1H)-imine] was tested, and the Difference ([1]; Cmpd minus DMSO, -LOG(P-value) 0.709566) was 1.456, the “iBAQ Cmpd” value ([1]; replicates 1-3) was 18.8418 and 18.1506 and 17.9444 and the Difference ([2]; Cmpd minus DMSO, -LOG(P-value) 0.777225) was -0.7361. For the same compound, the “iBAQ Cmpd” value ([2]; replicates 1-3) was 21.3956 and 22.1107 and 21.8582, the Difference ([3]; Cmpd minus DMSO, -LOG(P-value) 0.865251) was 0.2314 and the “iBAQ Cmpd” value ([3]; replicates 1-3) was 25.9383 and 25.6872 and 25.6067. For the same compound, the Difference ([4]; Cmpd minus DMSO, -LOG(P-value) 1.04359) was 0.4116, the “iBAQ Cmpd” value ([4]; replicates 1-3) was 19.4014 and 19.227 and 18.8879 and the Difference ([5]; Cmpd minus DMSO, -LOG(P-value) 0.875271) was 3.1666. The “iBAQ Cmpd” value ([5]; replicates 1-3) was 21.4367 and 18.8839 and 18.3449, the Difference ([6]; Cmpd minus DMSO, -LOG(P-value) 0.713884) was 3.378 and the “iBAQ Cmpd” value ([6]; replicates 1-3) was 19.623 and 19.0936 and 18.8692.
